Tested on: PBMC from HLA-A*02:01 Chagas disease patients and healthy donors
Assay: Granzyme B ELISPOT in PBMC
Type: cell-based, human
Details: 30 h, non-peptide control spots subtracted
Protocol: For the screening of the recognition of TcCA-2 epitopes by Chagas disease patients, 10 HLA-A*02:01 adult patients in the asymptomatic phase of the disease (IND) were enrolled. For cytotoxicity, functional activity determinations and phenotypic characterization another group of 19 HLA-A*02:01 adults Chagas disease patients and 9 healthy donors were analyzed. These patients were at the chronic stage of the disease and were considered to be at the asymptomatic phase (IND, n = 8) if there was no evidence of having cardiac or gastrointestinal disorders. Chronic Chagas cardiomyopathy patients (CCC, n = 11) were stratified into G1 to G3 stages following Kuschnir classification according to clinical criteria and radiological, electrocardiographic and echocardiography analyses. The number of patients was the one recommended by the Hospital Ethical Committee. […] The patients were enrolled in both studies (functional and phenotypic characterization, IND n = 6 and CCC n = 7) when the available number of purified PBMC (limited by the cellular number isolated from each subject) was enough for both analyses. Another four CCC patients had to be enrolled to perform the phenotypic analysis in order to reach statistical significance.
The frequency of Granzyme B (GzB) producing cells was evaluated by ELISPOT assays using cryopreserved PBMC from Chagas disease patients and healthy donors as control. This protocol was carried out as described in [20]. Briefly, 96-well PVDF membrane-bottom plates (Millipore) were pre-wetted with 35% ethanol and washed five times with PBS. Subsequently, plates were coated with 100 μL of anti-GzB (5 μg/mL) monoclonal antibody (Mabtech) and incubated overnight at 4°C. Plates were washed with PBS and incubated with 200 μL/well of blocking solution (RPMI-1640-10% FCS) at room temperature for 30 minutes. Afterwards, 5 × 10^4 PBMC/well were added and incubated with 1 μM of each peptide for 30 h at 37°C with 5% CO2, in triplicates. As a positive control, the PBMC were stimulated with 50 ng/ml phorbol 12-myristate 13-acetate (PMA, Sigma) and 500 ng/ml ionomycin (Sigma), or 10 μg/mL of phytohaemaglutinin (PHA, Sigma). Supernatants were harvested and aliquoted at -80°C for subsequent cytokine secretion profile determination. After five washes, 100 μL/well of a 1 μg/mL solution of biotinylated GzB-specific antibody (Mabtech) was added in 0.5% iFCS in PBS, and the plates were incubated for 2 h at room temperature. Wells were extensively washed with PBS and incubated with 100 μL/well streptavidin-alkaline phosphatase (Sigma) at dilution of 1:6000 for 1 h at room temperature. After washing (5x) with PBS, 50 μL/well of substrate solution (NBT-BCIP substrate, Sigma) were added. The wells were incubated for 20–30 min at room temperature in the dark. The reaction was stopped by rinsing the plates with cold tap water. The spots were visualized in an AXIO PLAN 2 Imagine microscope and quantified using KS ELISPOT software. The results are expressed as the number of peptide-induced spots forming cell (SFC) x10^6 PBMC after subtracting the spot number of peptide un-stimulated PBMCs (basal response). The results were considered positive when a minimum of 20 SFCx10^6 PBMCs and of at least over twofold basal spot numbers were detected.
The cytotoxic activity of the CD8^+ T cells specific for these four TcCA-2-derived epitopes was evaluated by secretion of GzB through ELISPOT assays. Thus, PBMC from 15 HLA-A*02:01 chagasic patients (8 IND and 7 CCC) and 9 healthy donors were incubated with the peptides under study. A positive GzB response was detected in 3 patients (2 IND and 1 CCC) out of 10 in response to incubation with the TcCA-2_657-666 peptide, 5 patients (3 IND and 2 CCC) out of 14 in response to the TcCA-2_442-451 peptide, 3 patients (3 CCC) out of 14 in response to the TcCA-2_607-615 peptide and 2 patients (2 IND) out of 11 in response to the TcCA-2_273-281 peptide (Table 3). Cytotoxic activities were not detected in any healthy donor. […]

[1] = PBMC of patient CCC I 770, 1 μM peptide
[2] = PBMC of patient CCC I 861, 1 μM peptide
[3] = PBMC of patient CCC I 884, 1 μM peptide
[4] = PBMC of patient CCC III 509, 1 μM peptide
[5] = PBMC of patient IND 365, 1 μM peptide
[6] = PBMC of patient IND 388, 1 μM peptide
[7] = PBMC of patient IND 510, 1 μM peptide
[8] = PBMC of patient IND 535, 1 μM peptide
[9] = PBMC of patient IND 571, 1 μM peptide
[10] = PBMC of patient IND 917, 1 μM peptide
[11] = PBMC of subject HD 001, 1 μM peptide
[12] = PBMC of subject HD 004, 1 μM peptide
[13] = PBMC of subject HD 005, 1 μM peptide
[14] = PBMC of subject HD 006, 1 μM peptide
[15] = PBMC of subject HD 008, 1 μM peptide
[16] = PBMC of subject HD 011, 1 μM peptide
[17] = PBMC of subject HD 340, 1 μM peptide
[18] = PBMC of subject HD 664, 1 μM peptide
[19] = PBMC of patient CCC I 456, 1 μM peptide
[20] = PBMC of patient CCC II 142, 1 μM peptide
[21] = PBMC of patient CCC III 797, 1 μM peptide
[22] = PBMC of patient IND 265, 1 μM peptide
[23] = PBMC of patient IND 283, 1 μM peptide

Sequence	GzB [1] [SFC/10^6]	GzB [2] [SFC/10^6]	GzB [3] [SFC/10^6]	GzB [4] [SFC/10^6]	GzB [5] [SFC/10^6]	GzB [6] [SFC/10^6]	GzB [7] [SFC/10^6]	GzB [8] [SFC/10^6]	GzB [9] [SFC/10^6]	GzB [10] [SFC/10^6]	GzB [11] [SFC/10^6]	GzB [12] [SFC/10^6]	GzB [13] [SFC/10^6]	GzB [14] [SFC/10^6]	GzB [15] [SFC/10^6]	GzB [16] [SFC/10^6]	GzB [17] [SFC/10^6]	GzB [18] [SFC/10^6]	GzB [19] [SFC/10^6]	GzB [20] [SFC/10^6]	also measured
ALQVTNHRYL [TcCA-2_657-666]	-7	50	0	0	0	7	-7	67	83	-10	0	-7	-40	0	-47	-7	1	0			GzB (PBMC of subject HD 017, 1 μM peptide): 0 SFC/10^6
ALRNLRVFL [TcCA-2_607-615]	0	-8	0	25	7	13	13	-7		-20	0	-7	-47	7	-70	-7	0	0	13	53	GzB [21]: 27 SFC/10^6; GzB [22]: -100 SFC/10^6; GzB [23]: -20 SFC/10^6
TVFDASRSTV [TcCA-2_442-451]	13	0	7	50	27	0	0	-13		40	0	0	-40	-7	-73	-20	1	1	-7	80	GzB [21]: 7 SFC/10^6; GzB [22]: -13 SFC/10^6; GzB [23]: 47 SFC/10^6
AAAGDKLSL [TcCA-2_273-281]	-7	8	7	0	7	33	-20	-27	67	13	1	0	-47	-7	-47	-20	0	0	13		

Source: paper PMC4376724, “Differential Phenotypic and Functional Profiles of TcCA-2 -Specific Cytotoxic CD8^+ T Cells in the Asymptomatic versus Cardiac Phase in Chagasic Patients” (PLoS ONE, 2015)
